In patent US20230117920A1, “Library Construction Method, Cyclic Peptide, FXIIa Binder and IFNGR1 Binder” (The University of Tokyo, priority 2019, published 2023):
Like-named read-outs stand apart in the source and are kept apart here. Starred links: 1 amine or outer side, 2 acyl side, 3 side chain; linkers in the order of their positions; H or OH if unused. Positions of bridges follow the written chain, without caps; N, C: chain ends. Non-standard residues stand in square brackets, D forms with d. Residues, ends and D or L forms follow the SMILES beside them. No end group written: not given here. ACHC(1S,2S) = O=C([C@H]1CCCC[C@@H]1N[*:1])[*:2]; X1 = O=C([C@@H]1CCC[C@H]1N[*:1])[*:2]; X2 = O=C([C@H]1CCC[C@@H]1N[*:1])[*:2]

B1: F1A (peptide)
peptide: {CH2CO}-[dY]NDRSTRARLVA[dC]
modifications: thioether N-13
notes: also called negative control peptide of F1; Ala mutant F1A
B2: F2A (peptide)
peptide: {CH2CO}-[dY]PRLFNASYLRR[dC]
modifications: thioether N-13
notes: also called negative control peptide of F2
B3: F3 (peptide)
peptide: {CH2CO}-[dY]FAYDRR[ACHC(1S,2S)]LSNN[ACHC(1S,2S)]RNY[dC]
modifications: thioether N-17
notes: Made by solid-phase synthesis with the C-terminal TGTGT linker omitted; The formula f3 in the summary and claims ends in RNT; also called yFAYDRR1LSNN1RNYc
B4: F4 (peptide)
peptide: YRYTXNRLFXNAC
modifications: not fully specified; 1: D-Tyr, N-acetylated (from N-chloroacetyl-D-Tyr), thioether to D-Cys 13 (cyclic peptide); 5 and 10 (X, printed '1'): (1S,2S)-2-ACHC; 13: D-Cys
B5: F2 (peptide)
peptide: YPRLFNXSYLRRC
modifications: not fully specified; 1: D-Tyr, N-acetylated (from N-chloroacetyl-D-Tyr), thioether to D-Cys 13 (cyclic peptide); 7 (X, printed '2'): (1R,2R)-2-ACPC; 13: D-Cys
B6: F1 (peptide)
peptide: YNDRSTRXRLVAC
modifications: not fully specified; 1: D-Tyr, N-acetylated (from N-chloroacetyl-D-Tyr), the acetyl joined by a thioether bond to the thiol of D-Cys 13 (cyclic peptide); 8 (X, printed '2'): (1R,2R)-2-ACPC; 13: D-Cys

What was measured:
[1] = molecular target: interferon γ receptor 1 (IFNGR1) (Homo sapiens, UniProt P15260); experiment: biochemical; settings: for kon: read-out: ka
[2] = molecular target: human factor XIIa (FXIIa) (Homo sapiens, UniProt P00748); experiment: biochemical; settings: for kon: read-out: ka
FXIIa [3] = molecular target: T1, FXIIa (Homo sapiens, UniProt P00748); experiment: biochemical
FXIIa [4] = molecular target: T1, FXIIa; settings: reference protein inhibitor against FXIIa; cited from earlier work
[5] = molecular target: T2, human factor XIIa (activated blood coagulation factor XII) (human, UniProt P00748 20-615, limits assumed, biotinylated (site not stated)); experiment: SPR, Biacore T200, 25 C, single cycle kinetics, 1:1 model
T2 construct: The construct used for SPR, for the Ki assay and for the cocrystal is not described; The same entry is used for all three; also called FXIIa; FXIIA
T2 sequence (looked up): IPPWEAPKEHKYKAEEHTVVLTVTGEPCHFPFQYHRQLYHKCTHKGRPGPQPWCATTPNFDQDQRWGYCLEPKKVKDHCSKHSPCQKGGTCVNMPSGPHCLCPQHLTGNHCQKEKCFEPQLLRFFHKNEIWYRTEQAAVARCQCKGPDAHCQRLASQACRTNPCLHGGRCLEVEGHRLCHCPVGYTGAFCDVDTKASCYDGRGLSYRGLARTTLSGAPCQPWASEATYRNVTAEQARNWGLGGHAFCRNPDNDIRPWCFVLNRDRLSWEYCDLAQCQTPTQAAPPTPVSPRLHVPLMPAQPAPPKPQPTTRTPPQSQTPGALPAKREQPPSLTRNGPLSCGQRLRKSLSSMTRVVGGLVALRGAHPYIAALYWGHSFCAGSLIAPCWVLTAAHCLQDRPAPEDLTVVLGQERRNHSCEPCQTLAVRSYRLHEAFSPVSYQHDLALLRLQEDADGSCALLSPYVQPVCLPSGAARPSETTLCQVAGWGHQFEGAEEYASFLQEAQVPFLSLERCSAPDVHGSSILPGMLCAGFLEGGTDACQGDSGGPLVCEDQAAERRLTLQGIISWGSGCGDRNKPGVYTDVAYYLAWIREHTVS

[6] = molecular target: T2, human factor XIIa (activated blood …); experiment: SPR, Biacore T200, 25 C, single cycle kinetics, 1:1 model; peptide F2A (drawing CHEM-US-00044, read number 0), control variant of F2
[7] = molecular target: T2, human factor XIIa (activated blood …); experiment: inhibition of FXIIa cleavage of the chromogenic substrate S-2302 (H-D-Pro-Phe-Arg-pNA), absorbance at 405 nm
[8] = molecular target: human factor XIIa (activated blood coagulation factor XII) (human) (UniProt P00748); experiment: SPR, Biacore T200, 25 C, single cycle kinetics, 1:1 model

Molecule	Kd [1]	kon [1]	kon [2]	further results
CC(C)[C@@H]1NC(=O)CNC(=O)[C@H](Cc2ccccc2)NC(=O)[C@@H](Cc2ccc(O)cc2)NC(=O)CSC[C@H](C(=O)NCC(N)=O)NC(=O)[C@H]([C@@H](C)O)NC(=O)[C@H](CCCNC(=N)N)NC(=O)[C@H](CC(N)=O)NC(=O)[C@H](Cc2ccc(O)cc2)NC(=O)[C@H](Cc2ccccc2)NC(=O)[C@@H]2CCC[C@H]2NC(=O)[C@H]2CCC[C@@H]2NC1=O [I1-6] ({CH2CO}-[dY]FGV[X2][X1]FYNRT[dC]G-NH2; thioether N-12)	1.87 nM	920000 M⁻¹ s⁻¹		
CC(C)C[C@@H]1NC(=O)[C@H]2CCCC[C@@H]2NC(=O)[C@H](CCCNC(=N)N)NC(=O)[C@H](CCCNC(=N)N)NC(=O)[C@H](CC(=O)O)NC(=O)[C@H](Cc2ccc(O)cc2)NC(=O)[C@H](C)NC(=O)[C@H](Cc2ccccc2)NC(=O)[C@@H](Cc2ccc(O)cc2)NC(=O)CSC[C@H](C(=O)NCC(N)=O)NC(=O)[C@H](Cc2ccc(O)cc2)NC(=O)[C@H](CC(N)=O)NC(=O)[C@H](CCCNC(=N)N)NC(=O)[C@H]2CCCC[C@@H]2NC(=O)[C@H](CC(N)=O)NC(=O)[C@H](CC(N)=O)NC(=O)[C@H](CO)NC1=O [F3] ({CH2CO}-[dY]FAYDRR[ACHC(1S,2S)]LSNN[ACHC(1S,2S)]RNY[dC]G-NH2; thioether N-17)			1.59e+06 M⁻¹ s⁻¹	
CC(C)C[C@@H]1NC(=O)[C@H](Cc2ccc(O)cc2)NC(=O)[C@H](CO)NC(=O)[C@@H]2CCC[C@H]2NC(=O)[C@H](CC(N)=O)NC(=O)[C@H](Cc2ccccc2)NC(=O)[C@H](CC(C)C)NC(=O)[C@H](CCCNC(=N)N)NC(=O)[C@@H]2CCCN2C(=O)[C@@H](Cc2ccc(O)cc2)NC(=O)CSC[C@H](C(=O)NCC(N)=O)NC(=O)[C@H](CCCNC(=N)N)NC(=O)[C@H](CCCNC(=N)N)NC1=O [F2] ({CH2CO}-[dY]PRLFN[X1]SYLRR[dC]G-NH2; thioether N-13)			3.07e+07 M⁻¹ s⁻¹	Ki (FXIIa [3]): 2.14 nM; Kd [2]: 0.58 nM
CC(C)C[C@@H]1NC(=O)[C@H](CO)NC(=O)[C@H](Cc2ccccc2)NC(=O)[C@@H](Cc2ccc(O)cc2)NC(=O)CSC[C@H](C(=O)NCC(N)=O)NC(=O)CNC(=O)[C@H](CCCNC(=N)N)NC(=O)[C@H](CO)NC(=O)[C@H](CCCNC(=N)N)NC(=O)[C@H](CC(N)=O)NC(=O)[C@H](Cc2ccccc2)NC(=O)[C@H](CO)NC(=O)[C@@H]2CCC[C@H]2NC(=O)[C@H](CCCNC(=N)N)NC1=O [I1-4] ({CH2CO}-[dY]FSLR[X1]SFNRSRG[dC]G-NH2; thioether N-14)	5.76 nM	3.39e+06 M⁻¹ s⁻¹		
CC(C)C[C@@H]1NC(=O)[C@H](CCCNC(=N)N)NC(=O)[C@H](CC(N)=O)NC(=O)[C@H]2CCCC[C@@H]2NC(=O)[C@H]([C@@H](C)O)NC(=O)[C@H](Cc2ccc(O)cc2)NC(=O)[C@H](CCCNC(=N)N)NC(=O)[C@@H](Cc2ccc(O)cc2)NC(=O)CSC[C@H](C(=O)NCC(N)=O)NC(=O)[C@H](C)NC(=O)[C@H](CC(N)=O)NC(=O)[C@H]2CCCC[C@@H]2NC(=O)[C@H](Cc2ccccc2)NC1=O [F4] ({CH2CO}-[dY]RYT[ACHC(1S,2S)]NRLF[ACHC(1S,2S)]NA[dC]G-NH2; thioether N-13)			550000 M⁻¹ s⁻¹	Ki (FXIIa [3]): 4.32 nM; Kd [2]: 15.5 nM
CC(C)C[C@@H]1NC(=O)[C@H](CC(N)=O)NC(=O)[C@H](Cc2ccc(O)cc2)NC(=O)[C@H](CCCNC(=N)N)NC(=O)[C@@H]2CCCN2C(=O)[C@@H](Cc2ccc(O)cc2)NC(=O)CSC[C@H](C(=O)NCC(N)=O)NC(=O)[C@H](CC(N)=O)NC(=O)[C@@H]2CCC[C@H]2NC(=O)[C@H](Cc2ccccc2)NC(=O)[C@H](CCCNC(=N)N)NC(=O)[C@@H]2CCCN2C(=O)[C@H](CO)NC(=O)[C@H](C)NC(=O)CNC(=O)[C@H]2CCC[C@@H]2NC1=O [I2] ({CH2CO}-[dY]PRYNL[X2]GASPRF[X1]N[dC]G-NH2; thioether N-16)	12.3 nM	1.98e+06 M⁻¹ s⁻¹		
CC(C)C[C@@H]1NC(=O)[C@H](Cc2ccc(O)cc2)NC(=O)[C@H](CO)NC(=O)[C@H](C)NC(=O)[C@H](CC(N)=O)NC(=O)[C@H](Cc2ccccc2)NC(=O)[C@H](CC(C)C)NC(=O)[C@H](CCCNC(=N)N)NC(=O)[C@@H]2CCCN2C(=O)[C@@H](Cc2ccc(O)cc2)NC(=O)CSC[C@H](C(N)=O)NC(=O)[C@H](CCCNC(=N)N)NC(=O)[C@H](CCCNC(=N)N)NC1=O [F2A] ({CH2CO}-[dY]PRLFNASYLRR[dC]-NH2; thioether N-13)			4.75e+06 M⁻¹ s⁻¹	
CC(C)C[C@@H]1NC(=O)CNC(=O)[C@H](C(C)C)NC(=O)[C@@H](Cc2ccc(O)cc2)NC(=O)CSC[C@H](C(=O)NCC(N)=O)NC(=O)[C@H]([C@@H](C)O)NC(=O)[C@H](CCCNC(=N)N)NC(=O)[C@H](CC(N)=O)NC(=O)[C@H](CC(C)C)NC(=O)[C@H](CO)NC(=O)[C@@H]2CCC[C@H]2NC(=O)[C@H](CC(N)=O)NC1=O [I1-3] ({CH2CO}-[dY]VGLN[X1]SLNRT[dC]G-NH2; thioether N-12)	150 nM	1.41e+06 M⁻¹ s⁻¹		
CC(C)C[C@@H]1NC(=O)[C@H](CCCNC(=N)N)NC(=O)[C@H](C)NC(=O)[C@H](CCCNC(=N)N)NC(=O)[C@H]([C@@H](C)O)NC(=O)[C@H](CO)NC(=O)[C@H](CCCNC(=N)N)NC(=O)[C@H](CC(=O)O)NC(=O)[C@H](CC(N)=O)NC(=O)[C@@H](Cc2ccc(O)cc2)NC(=O)CSC[C@H](C(N)=O)NC(=O)[C@H](C)NC(=O)[C@H](C(C)C)NC1=O [F1A] ({CH2CO}-[dY]NDRSTRARLVA[dC]-NH2; thioether N-13)			580000 M⁻¹ s⁻¹	
CC(C)C[C@@H]1NC(=O)[C@H](CCCNC(=N)N)NC(=O)[C@@H]2CCC[C@H]2NC(=O)[C@H](CCCNC(=N)N)NC(=O)[C@H]([C@@H](C)O)NC(=O)[C@H](CO)NC(=O)[C@H](CCCNC(=N)N)NC(=O)[C@H](CC(=O)O)NC(=O)[C@H](CC(N)=O)NC(=O)[C@@H](Cc2ccc(O)cc2)NC(=O)CSC[C@H](C(=O)NCC(N)=O)NC(=O)[C@H](C)NC(=O)[C@H](C(C)C)NC1=O [F1] ({CH2CO}-[dY]NDRSTR[X1]RLVA[dC]G-NH2; thioether N-13)			2.74e+06 M⁻¹ s⁻¹	Ki (FXIIa [3]): 22.1 nM; Kd [2]: 8.21 nM
CC(C)[C@@H]1NC(=O)CNC(=O)[C@H](Cc2ccccc2)NC(=O)[C@@H](Cc2ccc(O)cc2)NC(=O)CSC[C@H](C(=O)NCC(N)=O)NC(=O)[C@H]([C@@H](C)O)NC(=O)[C@H](CCCNC(=N)N)NC(=O)[C@H](CC(N)=O)NC(=O)[C@H](Cc2ccc(O)cc2)NC(=O)[C@H](Cc2ccccc2)NC(=O)[C@@H]2CCC[C@H]2NC(=O)[C@H](CCCNC(=N)N)NC1=O [I1-1] ({CH2CO}-[dY]FGVR[X1]FYNRT[dC]G-NH2; thioether N-12)	5 nM	1.74e+06 M⁻¹ s⁻¹		
CC(C)C[C@@H]1NC(=O)[C@H](C)NC(=O)[C@H](Cc2ccccc2)NC(=O)[C@@H](Cc2ccc(O)cc2)NC(=O)CSC[C@H](C(=O)NCC(N)=O)NC(=O)[C@H](CCCNC(=N)N)NC(=O)[C@H](CCCNC(=N)N)NC(=O)[C@H](CC(N)=O)NC(=O)[C@H]2CCCC[C@@H]2NC(=O)[C@H](CCCNC(=N)N)NC(=O)[C@@H]2CCC[C@H]2NC(=O)[C@H](CC(N)=O)NC1=O [I1-5] ({CH2CO}-[dY]FALN[X1]R[ACHC(1S,2S)]NRR[dC]G-NH2; thioether N-12)	336 nM	3.01e+06 M⁻¹ s⁻¹		
corn trypsin inhibitor [CTI]				Ki (FXIIa [4]): 24 nM
B1				Kd [5]: 51.3 nM; koff [5]: 0.0297 s⁻¹
B2				Kd [6]: 92.2 nM; koff [5]: 0.438 s⁻¹
B3				Ki [7]: 1.02 nM; Kd [5]: 0.98 nM; koff [5]: 0.0016 s⁻¹
B4				koff [8]: 0.0085 s⁻¹
B5				koff [8]: 0.0178 s⁻¹
B6				koff [8]: 0.0225 s⁻¹
